Experimental data reported in ChEMBL document CHEMBL5033989, “Nor-abietane Diterpenoids from Perovskia abrotanoides Roots with Anti-inflammatory Potential” (J Nat Prod, 2021).
Calls of active or inactive are those of the source. The calls are words filed in the database; no cut-off is given here.

Key:
J774.A1 [1] = test: Inhibition of LPS-induced NO release in mouse J774.A1 cells at 5 uM when treated with compound and LPS simultaneously measured after 24 hrs by Griess reagent based assay relative to control; type: functional; design: scale not given: the % may be the effect or the level left
J774.A1 [2] = test: Inhibition of LPS-induced NO release in mouse J774.A1 cells at 12.5 to 50 uM when treated with compound and LPS simultaneously measured after 24 hrs by Griess reagent based assay relative to control; type: functional, cell-based; settings: dose 12.5-50 µM
J774.A1 [3] = test: Inhibition of iNOS expression in LPS-stimulated mouse J774.A1 cells at 12.5 to 50 uM measured after […] by flow cytometry analysis relative to control; type: functional, cell-based; settings: dose 12.5-50 µM
J774.A1 [4] = test: Cytotoxicity against mouse J774.A1 cells assessed as antiproliferative activity at 12.5 to 50 uM incubated for 24 hrs by MTT assay relative to control; type: cell-based; settings: j774.a1, 24 h, dose 12.5-50 µM
J774.A1 [5] = test: Cytotoxicity against mouse J774.A1 cells assessed as antiproliferative activity at 200 uM incubated for 24 hrs by MTT assay relative to control; type: cell-based; settings: j774.a1, 24 h

COC(=O)[C@@H](N)CCCNC(=N)N[N+](=O)[O-].Cl
Activity (J774.A1 [1]): 57%

Cc1cc2c(cc1O)C[C@]1(O)CCCC(C)(C)[C@@H]1CC2
Activity (J774.A1 [2]): Active
Activity (J774.A1 [3]): Active
Activity (J774.A1 [4]): Non-Toxic

Cc1cc2c(cc1O)[C@@]13CCCC(C)(C)[C@@H]1[C@H](OC3)[C@@H]2O
Activity (J774.A1 [4]): Toxic

CC1(C)CCC[C@@]23CO[C@@H](C[C@@H]12)c1cc(O)c(O)cc13
Activity (J774.A1 [4]): Toxic

CC1=C[C@]2(O)CC[C@H]3C(C)(C)CCC[C@@]3(O)C2=CC1=O
Activity (J774.A1 [2]): Active
Activity (J774.A1 [3]): Active
Activity (J774.A1 [4]): Non-Toxic

CC(CO)C1=C(O)C(=O)c2c(ccc3c2[C@H](O)CCC3(C)C)C1=O (stereo not given in full)
Activity (J774.A1 [2]): Active
Activity (J774.A1 [3]): Active
Activity (J774.A1 [4]): Non-Toxic

Sc1ncnc2nc[nH]c12 [MERCAPTOPURINE ANHYDROUS]
Activity (J774.A1 [5]): 27.86%

Cc1cc2c(cc1O)[C@@]13CCC(=O)C(C)(C)[C@@H]1C[C@@H]2OC3
Activity (J774.A1 [2]): Active
Activity (J774.A1 [3]): Active
Activity (J774.A1 [4]): Non-Toxic

CC1=C[C@@]2(O)CC[C@H]3C(C)(C)CCC[C@]3(CO)C2=CC1=O
Activity (J774.A1 [4]): Toxic

CC(C)c1cc2ccc3c(c2c(O)c1O)C=CC(=O)C3(C)C
Activity (J774.A1 [2]): Active
Activity (J774.A1 [3]): Active
Activity (J774.A1 [4]): Non-Toxic
